pEC50, pIC50: −log10 of the molar value.
What was measured:
[1] = molecular target: T1, Growth hormone secretagogue receptor type 1 (Homo sapiens, UniProt Q92847); assay: Displacement of [125I]ghrelin from GHSR1a in HEK293 cells by competitive binding assay; assay type: cell-based
[2] = molecular target: T1, Growth hormone secretagogue receptor type 1; assay: Agonist activity at eYFP/RLuc-tagged GHSR1a (unknown origin) transfected in HEK293 cells assessed as beta-arrestin 1 recruitment incubated for 20 mins by BRET assay; assay type: functional, cell-based
[3] = molecular target: T1, Growth hormone secretagogue receptor type 1; assay: Displacement of […] [125I]-ghrelin from eYFP-labelled GHSR1a (unknown origin) transfected in HEK293 cells incubated for 20 mins by radioligand binding assay; assay type: cell-based
[4] = molecular target: T1, Growth hormone secretagogue receptor type 1; assay: Agonist activity at eYFP/RLuc-tagged GHSR1a (unknown origin) transfected in HEK293 cells assessed as beta-arrestin 2 recruitment incubated for 20 mins by BRET assay; assay type: functional, cell-based

T1 sequence (Q92847 whole entry): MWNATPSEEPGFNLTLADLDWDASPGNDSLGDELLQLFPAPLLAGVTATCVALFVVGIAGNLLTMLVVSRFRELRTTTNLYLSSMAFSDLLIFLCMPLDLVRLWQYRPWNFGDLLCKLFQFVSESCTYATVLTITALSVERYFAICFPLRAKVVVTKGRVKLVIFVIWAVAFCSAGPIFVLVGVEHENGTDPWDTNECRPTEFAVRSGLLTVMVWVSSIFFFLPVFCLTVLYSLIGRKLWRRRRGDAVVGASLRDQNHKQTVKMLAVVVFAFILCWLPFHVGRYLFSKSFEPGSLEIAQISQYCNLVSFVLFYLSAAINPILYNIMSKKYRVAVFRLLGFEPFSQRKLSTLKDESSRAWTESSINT

Structure (SMILES): CCCCCCCC(=O)OC[C@H](NC(=O)[C@H](CO)NCC(N)=O)C(=O)N[C@@H](Cc1ccccc1)C(=O)N[C@@H](CC(C)C)C(=O)N[C@@H](CO)C(=O)N1CCC[C@H]1C(=O)N[C@@H](CCC(=O)O)C(=O)N[C@@H](Cc1c[nH]cn1)C(=O)N[C@@H](CCC(N)=O)C(=O)N[C@@H](CCCNC(=N)N)C(=O)N[C@H](C(=O)N[C@@H](CCC(N)=O)C(=O)N[C@@H](CCC(N)=O)C(=O)N[C@@H](CCCNC(=N)N)C(=O)N[C@@H](CCCCN)C(=O)N[C@@H](CCC(=O)O)C(=O)N[C@@H](CO)C(=O)N[C@@H](CCCCN)C(=O)N[C@@H](CCCCN)C(N)=O)C(C)C
- pIC50 [1]: 8.10

Structure (SMILES): CCCCCCCC(=O)OC[C@H](NC(=O)[C@H](CO)NCC(N)=O)C(=O)N[C@@H](Cc1ccccc1)C(=O)N[C@@H](CC(C)C)C(=O)N[C@@H](CO)C(=O)N1CCC[C@H]1C(=O)N[C@@H](CCC(=O)O)C(=O)N[C@@H](Cc1c[nH]cn1)C(=O)N[C@@H](CCC(N)=O)C(=O)N[C@@H](CCCNC(=N)N)C(=O)N[C@@]1(C)CCC/C=C\CCC[C@@](C)(C(=O)N[C@@H](CCC(=O)O)C(=O)N[C@@H](CO)C(=O)N[C@@H](CCCCN)C(=O)N[C@@H](CCCCN)C(=O)O)NC(=O)[C@H](CCCNC(=N)N)NC(=O)[C@H](CCC(N)=O)NC(=O)[C@H](CCC(N)=O)NC1=O
- pEC50 [2]: 7.11
- pIC50 [3]: 8.84
- pEC50 [4]: 6.94

Structure (SMILES): CCCCCCCC(=O)OC[C@H](NC(=O)[C@H](CO)NCC(N)=O)C(=O)N[C@@H](Cc1ccccc1)C(=O)N[C@@H](CC(C)C)C(=O)N[C@@H](CO)C(=O)N1CCC[C@H]1C(=O)N[C@@H](CCC(=O)O)C(=O)N[C@@H](Cc1c[nH]cn1)C(=O)N[C@@H](CCC(N)=O)C(=O)N[C@@H](CCCNC(=N)N)C(=O)N[C@H]1CSCc2ccc(cc2)CSC[C@@H](C(=O)N[C@@H](CCC(=O)O)C(=O)N[C@@H](CO)C(=O)N[C@@H](CCCCN)C(=O)N[C@@H](CCCCN)C(=O)O)NC(=O)[C@H](CCCNC(=N)N)NC(=O)[C@H](CCC(N)=O)NC(=O)[C@H](CCC(N)=O)NC1=O
- pEC50 [2]: 7.04
- pIC50 [3]: 8.31
- pEC50 [4]: 7.15

Reference: ChEMBL document CHEMBL5357048, “A survey of stapling methods to increase affinity, activity, and stability of ghrelin analogues” (RSC Med Chem, 2024)
